Results reported in patent publication US20100279962A1, “MONOSEBACATE OF PYRAZOLE DERIVATIVE” (KISSEI PHARMACEUTICAL CO., LTD., priority 2007, published 2010).

Columns and labels:
[1] = system: Male Wistar rats; assay: Oral glucose tolerance test, combination effect with glinides; format: in vivo, rat; settings: for Plasma glucose concentration (mg/dL) Just before administration: fasted rats, baseline before oral dosing; for Plasma glucose concentration (mg/dL) Just before administration / Plasma glucose concentration (mg/dL) 1 hr after administration: mean ± standard error; for Plasma glucose concentration at 1 hr compared with the Control group (in words) / Plasma glucose concentration (mg/dL) 1 hr after administration: oral, monosebacate 0.03 mg/kg as free form, mitiglinide calcium hydrate 0.3 mg/kg, oral glucose load
Protocol: (§1) Male Wistar rats (Charles River Japan, Inc.) at 9 weeks of age, fasted about 16 hours (each group has 6 animals), were administrated orally in a volume of 2.5 mL/kg with distilled water and 0.1% methylcellulose solution in the Control group, with the monosebacate (0.03 mg/kg as the above compound (B) (free form)) dissolved in distilled water (hereinafter referred to as the “monosebacate solution”) and 0.1% methylcellulose solution in the Monosebacate alone group, with gliclazide (0.3 mg/kg as gliclazide) dissolved in 0.1% methylcellulose solution (hereinafter referred to as the “gliclazide solution”) and distilled water in the Gliclazide alone group and with the monosebacate solution and the gliclazide solution (0.03 mg/kg as the compound (B) and 0.3 mg/kg as gliclazide) in the Gliclazide combination group, respectively. Subsequently, 0.4 g/mL of glucose solution (5 mL/kg) was loaded orally. The blood was collected from tail vein before and 1 hr after administration of test substance, and the plasma glucose concentrations were measured using Glucose C-II test WAKO (Wako Pure Chemical Industries, Ltd.). The numerical values in the table represent mean value±standard error.
Instead of gliclazide in the Gliclazide alone group and the Gliclazide combination group, mitiglinide calcium hydrate (JAN) (0.3 mg/kg as mitiglinide calcium hydrate) was used (hereinafter referred to as the “Mitiglinide alone group” and the “Mitiglinide combination group”, respectively), and the plasma glucose concentrations were measured in the same way as the above method (1). The numerical values in the table represent mean value±standard error.

[2] = Storage stability test (purity by HPLC, deliquescence); format: physicochemical; settings: for Purity (%) Initial / Purity (%) After 2 months: HPLC; for Storage stability (in words): 2 months
Protocol: The crystals of the monosebacate in Example 1 and amorphous 3-(3-{4-[3-(β-D-glucopyranosyloxy)-5-isopropyl-1H-pyrazol-4-ylmethyl]-3-methylphenoxy} propylamino)-2,2-dimethylpropionamide (free form) as Comparative Example were stored under condition of 40° C./75% relative humidity or 60° C. in open vessels, existence or nonexistence of the deliquescence and the storage stability for 2 months were examined. […] Analytical conditions of HPLC are as follows.
Detector: ultraviolet-visible absorption spectrophotometer
Column: LUNA C18(2) (produced by Phenomenex), 5 μm, 4.6×250 mm, particle diameter 100×10^−10 m
Column Temperature: a constant temperature of around 25° C.
Sample concentration: 1 mg/mL
Mobile phase A: 10 mM dipotassium hydrogenphosphate aqueous solution adjusted to pH 7.8 with phosphoric acid
Mobile phase B: Acetonitrile
0-30 min: Mobile phase A/Mobile phase B=78/22, 30-50 min: Mobile phase A/Mobile phase B=78/22→30/70, 50-60 min: Mobile phase A/Mobile phase B=30/70
Range of area measurement: for 50 minutes from the start, except for the area of the peak of the blank solution

[3] = system: Male Wistar rats; assay: Oral glucose tolerance test, combination effect with sulfonylureas; format: in vivo, rat; settings: for Plasma glucose concentration (mg/dL) Just before administration: fasted rats, baseline before oral dosing; for Plasma glucose concentration (mg/dL) Just before administration / Plasma glucose concentration (mg/dL) 1 hr after administration: mean ± standard error; for Plasma glucose concentration at 1 hr compared with the Control group (in words) / Plasma glucose concentration (mg/dL) 1 hr after administration: oral, monosebacate 0.03 mg/kg as free form, gliclazide 0.3 mg/kg, oral glucose load
Protocol: as §1

[4] = 40° C./75% relative humidity storage test
[5] = 60° C. in open vessels storage test
[6] = stored at 40° C./75% relative humidity for 2 months
[7] = stored at 60° C. in open vessels for 2 months

| Compound | Plasma glucose concentration (mg/dL) Just before administration [1] [mg/dL] | Plasma glucose concentration at 1 hr compared with the Control group (in words) [1] | Plasma glucose concentration (mg/dL) 1 hr after administration [1] [mg/dL] | Deliquescence ([2]; 40° C./75% relative humidity) | Purity (%) Initial [2, 4] [%] | Storage stability (in words) ([2]; 40° C./75% relative humidity) | Deliquescence ([2]; 40° C./75% relative humidity, listed as free form) | Purity (%) Initial [2, 5] [%] | Storage stability (in words) ([2]; 60° C. in open vessels) | Purity (%) After 2 months [2, 6] [%] | Purity (%) After 2 months [2, 7] [%] | Plasma glucose concentration (mg/dL) Just before administration [3] [mg/dL] | Plasma glucose concentration at 1 hr compared with the Control group (in words) [3] | Plasma glucose concentration (mg/dL) 1 hr after administration [3] [mg/dL] |
| --- | --- | --- | --- | --- | --- | --- | --- | --- | --- | --- | --- | --- | --- | --- |
| O=C(O)[C@H](CC(=O)N1C[C@H]2CCCC[C@H]2C1)Cc1ccccc1 [Mitiglinide, mitiglinide calcium hydrate] | 85.8 ± 1.7 | lower plasma glucose concentrations | 119.1 ± 5.8 |  |  |  |  |  |  |  |  |  |  |  |
| Cc1cc(OCCCNCC(C)(C)C(N)=O)ccc1Cc1c(O[C@@H]2O[C@H](CO)[C@@H](O)[C@H](O)[C@H]2O)n[nH]c1C(C)C [Comparative Example, 3-(3-{4-[3-(β-D-glucopyranosyloxy)-5-isopropyl-1H-pyrazol-4-ylmethyl]-3-methylphenoxy}propylamino)-2,2-dimethylpropionamide] |  |  |  | Yes | 98.7 | decrease in the purity | deliquescence from the initial of the experiment | 98.7 | remarkable decrease in the purity due to the decomposition | 97.0 | 95.3 |  |  |  |
| Bis[3-(3-{4-[3-(β-D-glucopyranosyloxy)-5-isopropyl-1H-pyrazol-4-ylmethyl]-3-methylphenoxy}propylamino)-2,2-dimethylpropionamide] monosebacate [Example 1] | 83.8 ± 1.8 | lower plasma glucose concentrations | 141.3 ± 5.6 | Nil | 99.6 | excellent storage stability |  | 99.6 | almost no decrease in the purity | 99.5 | 99.2 | 81.6 ± 3.1 | lower plasma glucose concentrations | 127.6 ± 3.8 |
| Cc1ccc(S(=O)(=O)NC(=O)NN2CC3CCCC3C2)cc1 (stereo not drawn) [Gliclazide, gliclazide] |  |  |  |  |  |  |  |  |  |  |  | 80.7 ± 6.7 | lower plasma glucose concentrations | 136.5 ± 6.7 |
